Experimental data from the Kinase Knowledgebase extract (Sharma et al. 2016).

Key:
PIK3CD = PIK3CD (UniProt O00329); test: PIK3-delta Kinase Inhibition
PIK3CB = PIK3CB (UniProt P42338); test: PIK3-beta Kinase Inhibition
PIK3CA = PIK3CA (UniProt P42336); test: PIK3-alpha Kinase Inhibition
PIK3CG = PIK3CG (UniProt P48736); test: PIK3-gamma Kinase Inhibition
Sequence of PIK3CG (P48736 whole entry, looked up): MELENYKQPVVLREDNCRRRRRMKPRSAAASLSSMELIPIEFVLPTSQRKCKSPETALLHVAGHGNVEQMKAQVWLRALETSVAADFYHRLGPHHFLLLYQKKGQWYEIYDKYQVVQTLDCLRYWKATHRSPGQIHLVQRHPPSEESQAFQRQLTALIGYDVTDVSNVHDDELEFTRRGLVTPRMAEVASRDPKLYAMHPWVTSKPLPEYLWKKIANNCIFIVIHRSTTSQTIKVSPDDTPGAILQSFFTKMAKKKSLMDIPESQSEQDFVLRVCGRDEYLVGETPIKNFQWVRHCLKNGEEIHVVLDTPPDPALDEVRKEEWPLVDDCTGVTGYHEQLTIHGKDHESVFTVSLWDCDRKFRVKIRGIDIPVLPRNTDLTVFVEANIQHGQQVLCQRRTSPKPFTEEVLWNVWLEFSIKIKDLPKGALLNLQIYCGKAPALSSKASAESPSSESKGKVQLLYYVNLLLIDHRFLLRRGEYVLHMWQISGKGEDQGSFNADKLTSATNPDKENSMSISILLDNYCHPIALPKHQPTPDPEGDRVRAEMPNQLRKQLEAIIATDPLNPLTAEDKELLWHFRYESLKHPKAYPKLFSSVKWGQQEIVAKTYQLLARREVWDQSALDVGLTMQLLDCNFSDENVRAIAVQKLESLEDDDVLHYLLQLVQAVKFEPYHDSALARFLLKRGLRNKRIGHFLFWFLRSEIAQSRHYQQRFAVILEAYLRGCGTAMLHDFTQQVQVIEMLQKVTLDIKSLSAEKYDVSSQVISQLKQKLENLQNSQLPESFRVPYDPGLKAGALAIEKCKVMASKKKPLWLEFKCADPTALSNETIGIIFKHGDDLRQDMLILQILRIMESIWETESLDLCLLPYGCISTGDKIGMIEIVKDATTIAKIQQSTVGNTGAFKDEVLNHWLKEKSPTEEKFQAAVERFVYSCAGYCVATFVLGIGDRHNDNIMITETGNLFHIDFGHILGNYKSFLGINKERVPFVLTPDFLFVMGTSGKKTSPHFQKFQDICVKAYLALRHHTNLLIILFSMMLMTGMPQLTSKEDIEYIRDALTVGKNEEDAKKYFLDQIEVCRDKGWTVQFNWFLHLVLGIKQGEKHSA

Sequence of PIK3CA (P42336 whole entry, looked up): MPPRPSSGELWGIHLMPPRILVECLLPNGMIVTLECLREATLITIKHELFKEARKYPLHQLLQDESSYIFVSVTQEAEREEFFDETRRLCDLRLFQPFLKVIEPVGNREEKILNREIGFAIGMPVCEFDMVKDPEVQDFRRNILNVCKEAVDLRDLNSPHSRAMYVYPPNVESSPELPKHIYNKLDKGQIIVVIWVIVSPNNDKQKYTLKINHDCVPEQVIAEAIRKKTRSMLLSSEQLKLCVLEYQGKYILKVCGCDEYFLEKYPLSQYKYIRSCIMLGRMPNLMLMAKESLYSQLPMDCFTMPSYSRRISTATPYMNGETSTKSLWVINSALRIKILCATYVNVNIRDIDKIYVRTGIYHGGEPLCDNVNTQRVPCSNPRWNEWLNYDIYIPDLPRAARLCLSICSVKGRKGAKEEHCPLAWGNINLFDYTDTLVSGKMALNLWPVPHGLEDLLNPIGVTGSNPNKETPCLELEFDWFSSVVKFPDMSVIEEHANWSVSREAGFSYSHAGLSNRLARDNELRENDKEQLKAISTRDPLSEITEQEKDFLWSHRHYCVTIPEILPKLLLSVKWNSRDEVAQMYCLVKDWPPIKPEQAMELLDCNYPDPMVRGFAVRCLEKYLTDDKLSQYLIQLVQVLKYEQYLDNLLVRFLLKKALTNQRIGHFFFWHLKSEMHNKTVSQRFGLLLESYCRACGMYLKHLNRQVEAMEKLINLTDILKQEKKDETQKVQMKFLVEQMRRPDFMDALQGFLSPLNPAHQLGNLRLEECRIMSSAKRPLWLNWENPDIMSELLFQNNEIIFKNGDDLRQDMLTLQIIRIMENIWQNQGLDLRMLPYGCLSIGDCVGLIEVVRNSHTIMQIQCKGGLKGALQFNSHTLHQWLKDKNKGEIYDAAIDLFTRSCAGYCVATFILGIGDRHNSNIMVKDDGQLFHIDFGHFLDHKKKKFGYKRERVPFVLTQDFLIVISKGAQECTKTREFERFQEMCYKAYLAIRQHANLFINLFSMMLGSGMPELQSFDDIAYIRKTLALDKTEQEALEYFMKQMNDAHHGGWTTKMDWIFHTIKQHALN
Sequence of PIK3CD (O00329 whole entry, looked up): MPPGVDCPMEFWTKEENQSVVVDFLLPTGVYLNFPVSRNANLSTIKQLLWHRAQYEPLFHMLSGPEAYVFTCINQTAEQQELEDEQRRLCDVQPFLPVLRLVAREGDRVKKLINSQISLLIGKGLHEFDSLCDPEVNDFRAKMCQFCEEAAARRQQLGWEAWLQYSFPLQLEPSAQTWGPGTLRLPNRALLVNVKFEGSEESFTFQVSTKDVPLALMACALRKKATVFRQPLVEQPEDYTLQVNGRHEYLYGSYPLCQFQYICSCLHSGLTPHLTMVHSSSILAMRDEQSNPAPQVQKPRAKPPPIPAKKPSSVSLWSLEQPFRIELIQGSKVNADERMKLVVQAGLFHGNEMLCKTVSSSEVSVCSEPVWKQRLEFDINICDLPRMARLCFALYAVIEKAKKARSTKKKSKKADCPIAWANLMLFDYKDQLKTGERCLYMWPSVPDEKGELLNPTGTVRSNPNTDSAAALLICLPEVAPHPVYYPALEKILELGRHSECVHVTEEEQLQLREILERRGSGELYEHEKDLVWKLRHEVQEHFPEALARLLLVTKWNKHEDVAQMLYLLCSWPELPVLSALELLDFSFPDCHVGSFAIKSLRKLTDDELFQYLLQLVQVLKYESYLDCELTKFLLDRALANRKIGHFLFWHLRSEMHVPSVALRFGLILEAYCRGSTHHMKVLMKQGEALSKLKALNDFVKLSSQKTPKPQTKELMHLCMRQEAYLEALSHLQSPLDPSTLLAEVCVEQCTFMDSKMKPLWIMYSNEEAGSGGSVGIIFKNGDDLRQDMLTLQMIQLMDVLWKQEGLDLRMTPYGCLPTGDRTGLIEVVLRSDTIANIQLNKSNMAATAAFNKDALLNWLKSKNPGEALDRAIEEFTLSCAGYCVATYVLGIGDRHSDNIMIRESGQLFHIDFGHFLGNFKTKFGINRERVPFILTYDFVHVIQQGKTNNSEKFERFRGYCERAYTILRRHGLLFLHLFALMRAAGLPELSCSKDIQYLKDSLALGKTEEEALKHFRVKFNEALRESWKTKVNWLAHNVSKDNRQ
Sequence of PIK3CB (P42338 whole entry, looked up): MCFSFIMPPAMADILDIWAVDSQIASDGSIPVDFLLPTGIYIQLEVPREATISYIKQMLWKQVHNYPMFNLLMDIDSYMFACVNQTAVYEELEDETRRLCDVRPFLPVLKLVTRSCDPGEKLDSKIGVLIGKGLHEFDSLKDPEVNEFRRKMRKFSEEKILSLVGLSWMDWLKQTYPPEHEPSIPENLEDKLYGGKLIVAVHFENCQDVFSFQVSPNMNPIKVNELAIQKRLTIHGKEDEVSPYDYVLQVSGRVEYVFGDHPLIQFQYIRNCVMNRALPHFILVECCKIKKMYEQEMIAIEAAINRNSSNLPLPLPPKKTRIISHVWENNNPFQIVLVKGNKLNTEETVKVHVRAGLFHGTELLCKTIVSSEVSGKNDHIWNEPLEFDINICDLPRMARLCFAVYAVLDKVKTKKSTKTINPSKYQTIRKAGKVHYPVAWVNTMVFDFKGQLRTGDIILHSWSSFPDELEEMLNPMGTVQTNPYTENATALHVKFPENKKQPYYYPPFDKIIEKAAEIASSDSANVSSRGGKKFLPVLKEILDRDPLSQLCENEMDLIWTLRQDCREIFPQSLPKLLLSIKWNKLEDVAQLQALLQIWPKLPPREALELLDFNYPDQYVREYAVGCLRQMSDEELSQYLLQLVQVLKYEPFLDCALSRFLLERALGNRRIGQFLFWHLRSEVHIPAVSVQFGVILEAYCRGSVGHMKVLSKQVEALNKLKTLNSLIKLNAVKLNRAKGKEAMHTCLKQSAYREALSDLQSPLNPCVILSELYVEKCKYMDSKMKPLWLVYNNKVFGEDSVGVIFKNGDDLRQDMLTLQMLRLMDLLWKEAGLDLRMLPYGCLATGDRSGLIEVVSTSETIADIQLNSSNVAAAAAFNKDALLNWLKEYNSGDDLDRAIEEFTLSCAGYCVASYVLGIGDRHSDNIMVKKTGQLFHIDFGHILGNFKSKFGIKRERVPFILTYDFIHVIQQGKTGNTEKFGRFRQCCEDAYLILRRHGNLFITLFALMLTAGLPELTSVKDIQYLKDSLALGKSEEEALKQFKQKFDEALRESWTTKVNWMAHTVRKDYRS

IC50 (PIK3CD) [µM]	IC50 (PIK3CB) [µM]	IC50 (PIK3CA) [µM]	IC50 (PIK3CG) [µM]	IC80 (PIK3CB) [µM]	Structure (SMILES)
6					O=c1cc(N2CCOCC2)oc2c(-c3ccccc3)cccc12
13	7.5	45	100		O=c1cc(N2CCOCC2)oc2ccccc12
3.3	3.5	6.2	100		Cc1cc(Nc2cccc(C)c2C)c2nc(N3CCOCC3)cc(=O)n2c1
0.15	0.16	8.1	10		Cc1cc(NCc2ccccc2)c2nc(N3CCOCC3)cc(=O)n2c1
	3.7				O=C(c1ccccc1)c1ccc(N2CCOCC2)cc1O
0.63	0.13	61	100		Cc1ccccc1Oc1cccc2c(=O)cc(N3CCOCC3)[nH]c12
10	20	50	> 100		COc1ccccc1Nc1cc(C)cn2c(=O)cc(N3CCOCC3)nc12
3.8	3.3	9	> 100		Cc1cc(Nc2ccccc2C)c2nc(N3CCOCC3)cc(=O)n2c1
3.8		16	10	0.99	CC(=O)c1ccc(N2CCOCC2)cc1O

The next lines start with the compound.

Structure (SMILES)	IC50 (PIK3CD) [µM]	IC50 (PIK3CB) [µM]	IC50 (PIK3CA) [µM]	IC50 (PIK3CG) [µM]	IC80 (PIK3CB) [µM]
Cc1cc(NCc2ccccc2C)c2nc(N3CCOCC3)cc(=O)n2c1		0.11			
O=C(CCl)c1ccc(N2CCOCC2)cc1O	4.8		30	70	
Cc1cc(Nc2ccc(C)c(C)c2)c2nc(N3CCOCC3)cc(=O)n2c1	5	14	10	> 100	
O=Cc1ccc(N2CCOCC2)cc1O		2.8			
Nc1cc(N2CCOCC2)ccc1[N+](=O)[O-]	24	23	100	100	
Cc1cc(-c2cccc(N)c2)c2nc(N3CCOCC3)cc(=O)n2c1	6.9	18	14	38	
Cc1cccc(CNc2cc(C)cn3c(=O)cc(N4CCOCC4)nc23)c1	0.39	0.99	1.8	25	
Cc1cc(Br)c2nc(N3CCOCC3)cc(=O)n2c1	8.5	9.9	58	> 100	
